Test results: article PMC6197077 (Frontiers in Immunology, 2018)
Where “and” joins values, the source holds several entries; their conditions need not be identical. Equal values may be shown once. Entries after “also recorded” stand apart in the source; their conditions may differ. Read-outs that look alike come from different tables or passages of the source.

How the values were obtained:
P14 TCR = conditions: cited from earlier work; for Kd: SPR
[1] = test system: P14 TCR with CD8 coreceptor (TCR:pMHC:CD8); format: binding, mice; conditions: for peak bond lifetime under force, CD8-intact: BFP force-clamp, CD8-intact pMHC, peak of force curve, >1,000 bond lifetimes per curve; for bond lifetime at ~10 pN, CD8-intact: ~10 pN of force, CD8-intact (Figures 3F,G)
polyclonal CD8+ T cells [2] = format: cell-based, mice; conditions: for Nur77 MFI: polyclonal CD8 T cells, 1 uM (Figure 6F)
P14 CD8+ T cells [3] = format: cell-based, mice; conditions: for %Nur77+: representative of 3 experiments, n = 3-4 mice; for signal strength as measured by Nur77 upregulation: P14 CD8 T cells re-stimulated ex vivo; for ligand potency: at equivalent peptide doses, not factoring in peptide loading
P14 CD8+ T cells [4] = format: cell-based, mice
[5] = test system: TCR of naïve P14 CD8+ T cells (TCR:pMHC, H2D^b); format: binding, mice; conditions: for mean population 2D affinity (AcKa): naïve CD8+ P14 splenocytes, 50 contact cycles per cell, 3 individual experiments; for 2D affinity, result in words: naïve P14 CD8+ T cells
[6] = test system: T cells interacting with dendritic cells; conditions: peptide pulsed DCs, lymph node; versus 41C; ref Henrickson et al. [36]; cited from earlier work
Text: (§1) The question is to what extent loading of MHC affects the T cell response and their biology.

[7] = test system: TCR and CD8 of naïve P14 CD8+ T cells (TCR:pMHC:CD8, D^b); format: binding, mice; conditions: for normalized adhesion bonds, mean bond number (-ln(1-Pa(s))/mpMHC): P14 CD8+ T cells, wild type (CD8-intact) pMHC monomers, 3 individual experiments; for total bond number hierarchy: single P14 T cell probed against all three pMHC (Figure 2B)
P14 CD8+ T cells [8] = format: cell-based, mice; conditions: for IRF4 MFI at low peptide doses: P14 CD8+ T cells (Figure 4H)
[9] = test system: P14 TCR (TCR:pMHC, D^b D227K); format: binding, mice; conditions: for peak bond lifetime under force, CD8-null: BFP force-clamp, absence of CD8 (CD8-null pMHC), peak of force curve, >1,000 bond lifetimes per curve; for bond lifetime by BFP for the TCR alone: restated range in Discussion; for bond lifetime at ~10 pN, CD8-null: ~10 pN of force, CD8-null (Figures 3D,E)
polyclonal CD8+ T cells [10] = format: cell-based, mice
[11] = terminal cysteine; ref [27], [34]-[36]; cited from earlier work
MHC class I (D^b) = conditions: terminal cysteine; ref [27], [34]-[36]; cited from earlier work
pMHC (T-2D^b cell line) = conditions: competition on T-2D^b cell line; versus 9-mer 41C; ref [8] Gairin et al.; cited from earlier work
Text: as §1

[12] = P14 CD8+ T cells, D8 p.i., range of peptide doses
[13] = Boulter et al., ref [52], read-out: 3D affinity (as restated in Discussion)

Sequence	bond lifetime by SPR (P14 TCR; ref [51])	peak bond lifetime under force, CD8-intact [1]	bond lifetime at ~10 pN, CD8-intact [1]	%Nur77+ (P14 CD8+ T cells [3]; [12])	signal strength as measured by Nur77 upregulation (P14 CD8+ T cells [3])	ligand potency (P14 CD8+ T cells [3]) [M > 41C > 41CGI]	mean population 2D affinity (AcKa) [5] [μm^4]	2D affinity, result in words [5]	normalized adhesion bonds, mean bond number (-ln(1-Pa(s))/mpMHC) [7] [μm^2]	total bond number hierarchy [7] [M> 41C> 41CGI]	IRF4 MFI at low peptide doses (P14 CD8+ T cells [8])	peak bond lifetime under force, CD8-null [9]	bond lifetime by BFP for the TCR alone [9] [s]	bond lifetime at ~10 pN, CD8-null [9]	Kd (P14 TCR; [13]) [µM]	Nur77 MFI (polyclonal CD8+ T cells [2])	other results
KAVYNFATM [41M]	~ 0.5 s	~ 3.0 s	no significant difference in bond lifetime between 41M and 41C	higher percentage of CD8+ T cells re-stimulated with 41M expressed Nur77	stronger signal than 41C; also recorded: significantly stronger signals than 41CGI stimulated cells	41	1.04E-03	highest 2D affinity	6.40E-01	41	difference in IRF4 MFI	~ 0.8 s	0.8 to 0.9	no significant difference in bond lifetime between 41M and 41C			Kd (P14 TCR; ref [50], read-out: KD (3D affinity, SPR)): 17 µM; Kd (P14 TCR; ref [51], read-out: KD (3D affinity, SPR)): 9.1 µM; Kd (P14 TCR; ref [52], read-out: KD (3D affinity, SPR)): 2.3 µM; frequency of Nur77 expression (polyclonal CD8+ T cells [2]): increased frequencies of Nur77 expression; peptide dose at which Nur77 MFI peaks (P14 CD8+ T cells [3]; P14 CD8+ T cells re-stimulated ex vivo): 0.31 µM; Nur77 MFI (P14 CD8+ T cells [3]; [12]): higher MFI (peaking at 0.31 uM) than 41C and dramatically more so than 41CGI; double producers of IFNγ and TNF (P14 CD8+ T cells [4]): significantly higher frequency; sensitivity to antigen (P14 CD8+ T cells [4]): same sensitivity to antigen; triple producers of IFNγ, TNF and IL-2 (P14 CD8+ T cells [4]): significantly higher frequency; IFNγ production (P14 CD8+ T cells [4]; P14 cells, range of peptide doses, 6 h ex vivo (Figures 5A,B)): produced the most IFNγ; agonist classification (P14 CD8+ T cells [4]; by 2D affinity measures and functionality): super agonist peptide variant; transition to phase two T cell:DC contacts [6]: transitioned more quickly to phase two; IRF4 expression (polyclonal CD8+ T cells [10]): only a slight difference between 41M and 41C
KAVYNFATC [41C]	~ 0.5 s	~ 1.9 s	no significant difference in bond lifetime between 41M and 41C	significantly higher frequencies of Nur77+ CD8+ T cells than those stimulated with 41CGI	significantly stronger signals than 41CGI stimulated cells	41	6.62E-04		1.01E-01	41	difference in IRF4 MFI	~ 0.9 s	0.8 to 0.9	longer bond lifetime than 41M and dramatically more so than 41CGI; also recorded: no significant difference in bond lifetime between 41M and 41C	2.3	not significantly different	peptide dimer formation [11]: form peptide dimers; stability in the MHC (MHC class I (D^b)): decreased stability in the MHC; sensitivity to antigen (P14 CD8+ T cells [4]; 41M versus 41C, in our experiments): same sensitivity to antigen; functional responses read out by Nur77, IFNγ and IL-2 (P14 CD8+ T cells [4]; Discussion): larger responses; IRF4 MFI at highest peptide dose (P14 CD8+ T cells [8]; 1 uM peptide, P14 CD8+ T cells, 41C versus 41CGI): did not observe a difference between 41C and 41CGI; IRF4 expression (polyclonal CD8+ T cells [10]; polyclonal CD8 T cells, 1 uM, 41M versus 41C (Figures 6E-I)): only a slight difference between 41M and 41C
KAVYNFATCGI [41CGI]		~ 1.5 s				41	1.55E-04	lowest 2D affinity of the three, it still had a relatively high 2D affinity	2.93E-02	41	difference in IRF4 MFI	~ 0.1 s			3.5	not significantly different	fold increase of peak bond lifetime by CD8 contribution ([1]; CD8-intact versus CD8-null pMHC): 15 fold and ~ 15 fold; cytokine production (P14 CD8+ T cells [4]): significantly diminished cytokine production; efficiency at competing for pMHC (pMHC (T-2D^b cell line)): six times more efficient; IRF4 MFI at highest peptide dose (P14 CD8+ T cells [8]): did not observe a difference between 41C and 41CGI
